Experimental data from PubChem BioAssay AID248 (DTP/NCI, 2004).
Several values for one entry are separate records, joined by “and”; a condition that tells them apart may be missing. Identical values can stand only once. Inconclusive results and toxic doses are left out.

Tested on: L1210 leukemia ip in BDF1 mice, survival T/C
Assay: NCI In Vivo Anticancer Drug Screen. Data for tumor model L1210 Leukemia (intraperitoneal) in B6D2F1 (BDF1) mice
Conditions: endpoint: mean survival time, higher = longer survival
Summary of the method: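 Value reflects the ratio of survival in compound-treated mice to survival in vehicle-treated controls, with both groups carrying the same transplanted tumor.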

[1] = dose: 100.0 mg/kg/injection, schedule: Q04DX003 (ip), vehicle: saline with Tween-80
[2] = dose: 200.0 mg/kg/injection, schedule: Q04DX003 (ip), vehicle: saline with Tween-80
[3] = dose: 100.0 mg/kg/injection, schedule: Q04DX003 (ip), vehicle: Klucel (hydroxypropylcellulose) (HPC)
[4] = dose: 200.0 mg/kg/injection, schedule: Q04DX003 (ip), vehicle: Klucel (hydroxypropylcellulose) (HPC)

With `C1CCCN(/N=N/N2CCCCCC2)CC1` the T/C (dose: 100.0 mg/kg/injection, schedule: Q01DX001 (ip), vehicle: saline with Tween-80) was 100 % of control, the T/C (dose: 200.0 mg/kg/injection, schedule: Q01DX001 (ip), vehicle: saline with Tween-80) was 92 % of control and the T/C (dose: 400.0 mg/kg/injection, schedule: Q01DX001 (ip), vehicle: saline with Tween-80) was 100 % of control.
In the case of `CCOc1ccc2nc(/C=C/c3ccccc3)ccc2c1`, the T/C (dose: 200.0 mg/kg/injection, schedule: Q01DX001 (ip), vehicle: carboxymethylcellulose (CMC)) is reported as 89 % of control and the T/C (dose: 400.0 mg/kg/injection, schedule: Q01DX001 (ip), vehicle: carboxymethylcellulose (CMC)) is reported as 101 % of control.
In the case of `C[C@]12CCC(=O)C=C1CC[C@@H]1[C@@H]2C(=O)C[C@@]2(C)[C@H]1CC[C@]2(O)C(=O)COP(=O)(Nc1ccccc1)Nc1ccccc1`, the T/C (dose: 50.0 mg/kg/injection, schedule: Q01DX001 (sc), vehicle: steriod suspending solution) is reported as 102 % of control, the T/C (dose: 100.0 mg/kg/injection, schedule: Q01DX001 (sc), vehicle: steriod suspending solution) is reported as 98 % of control and the T/C (dose: 200.0 mg/kg/injection, schedule: Q01DX001 (sc), vehicle: steriod suspending solution) is reported as 102 % of control. For the same molecule, the T/C (dose: 400.0 mg/kg/injection, schedule: Q01DX001 (sc), vehicle: steriod suspending solution) was 98 % of control.
For `COc1c(C)c(C)c(OC)c(CC(=O)O)c1C`, the T/C [1] was 93 % of control, the T/C [2] was 90 % of control and the T/C (dose: 400.0 mg/kg/injection, schedule: Q04DX003 (ip), vehicle: saline with Tween-80) was 93 % of control.
`O=C(C=C(C(F)(F)F)C(F)(F)F)c1c2ccccc2cc2ccccc12` was tested, and the T/C (dose: 0.18 mg/kg/injection, schedule: Q01DX009 (ip), vehicle: DMSO) was 87 % of control, the T/C (dose: 0.37 mg/kg/injection, schedule: Q01DX009 (ip), vehicle: DMSO) was 99 % of control and the T/C (dose: 0.75 mg/kg/injection, schedule: Q01DX009 (ip), vehicle: DMSO) was 97 % of control. The T/C (dose: 1.5 mg/kg/injection, schedule: Q01DX009 (ip), vehicle: DMSO) was 93 % of control, the T/C (dose: 3.0 mg/kg/injection, schedule: Q01DX009 (ip), vehicle: DMSO) was 93 % of control and 88 % of control and the T/C (dose: 3.0 mg/kg/injection, schedule: Q04DX003 (ip), vehicle: DMSO) was 100 % of control. For the same molecule, the T/C (dose: 6.0 mg/kg/injection, schedule: Q04DX003 (ip), vehicle: DMSO) was 98 % of control, the T/C (dose: 12.0 mg/kg/injection, schedule: Q04DX003 (ip), vehicle: DMSO) was 97 % of control and the T/C (dose: 12.5 mg/kg/injection, schedule: Q04DX003 (ip), vehicle: DMSO) was 93 % of control.
With `c1ccc(-n2cc(-c3nc(N4CC4)nc(N4CC4)n3)c3ccccc32)cc1` the T/C (dose: 50.0 mg/kg/injection, schedule: Q01DX009 (ip), vehicle: Klucel (hydroxypropylcellulose) (HPC)) was 121 % of control, the T/C (dose: 100.0 mg/kg/injection, schedule: Q01DX009 (ip), vehicle: Klucel (hydroxypropylcellulose) (HPC)) was 103 % of control and the T/C [3] was 112 % of control. For the same molecule, the T/C [4] was 118 % of control.
With `Oc1ccccc1/C=N/n1cnnc1` the T/C [3] was 98 % of control, the T/C [4] was 100 % of control and the T/C (dose: 400.0 mg/kg/injection, schedule: Q04DX003 (ip), vehicle: Klucel (hydroxypropylcellulose) (HPC)) was 100 % of control.
For `CCCCCCCCCC(=O)N(CCC)CCC`, the T/C [1] was 91 % of control and the T/C [2] was 88 % of control.
With `O=CN/N=C/c1c[nH]c(=O)[nH]c1=O` the T/C (dose: 100.0 mg/kg/injection, schedule: Q01DX001 (ip), vehicle: saline) was 101 % of control, the T/C (dose: 200.0 mg/kg/injection, schedule: Q01DX001 (ip), vehicle: saline) was 106 % of control and the T/C (dose: 400.0 mg/kg/injection, schedule: Q01DX001 (ip), vehicle: saline) was 95 % of control.
In the case of `O=C(c1ccccc1)N(c1ccccc1)c1cccc(Cl)n1`, the T/C (dose: 50.0 mg/kg/injection, schedule: Q01DX009 (ip), vehicle: saline with Tween-80) is reported as 93 % of control, the T/C (dose: 100.0 mg/kg/injection, schedule: Q01DX009 (ip), vehicle: saline with Tween-80) is reported as 93 % of control and the T/C (dose: 200.0 mg/kg/injection, schedule: Q01DX009 (ip), vehicle: saline with Tween-80) is reported as 90 % of control.
With `CC1N=C(c2ccc(NC(=O)c3ccc(C(=O)Nc4ccc(C5=NC(C)C(C)N5)cc4)cc3)cc2)NC1C` (centres undefined) the T/C (dose: 0.5 mg/kg/injection, schedule: Q01DX015 (ip), vehicle: water) was 104 % of control, the T/C (dose: 0.75 mg/kg/injection, schedule: Q01DX001 (ip), vehicle: water) was 101 % of control and the T/C (dose: 1.0 mg/kg/injection, schedule: Q01DX015 (ip), vehicle: water) was 110 % of control. The T/C (dose: 1.5 mg/kg/injection, schedule: Q01DX001 (ip), vehicle: water) was 98 % of control, the T/C (dose: 2.0 mg/kg/injection, schedule: Q01DX001 (ip), vehicle: water) was 106 % of control and the T/C (dose: 3.0 mg/kg/injection, schedule: Q01DX001 (ip), vehicle: water) was 103 % of control. The T/C (dose: 3.0 mg/kg/injection, schedule: Q01DX015 (ip), vehicle: water) was 189 % of control and the T/C (dose: 4.0 mg/kg/injection, schedule: Q01DX015 (ip), vehicle: water) was 222 % of control.
